These results are taken from patent publication US20260225889A1, “Spherical nanoparticles for improved composite materials” (Stichting Radboud universitair medisch centrum, priority 2023, published 2026).

The subject of series [1] is intracellular S. aureus-mCherry. The series is classed as cell-based, S. aureus strain RN4220. The following applies: 24 h; for survival of intracellular S. aureus: systemically delivered: dissolved zinc (300 μM), dissolved vancomycin (5.5 μM), versus 'no treatment'.
Experimental: S. aureus strain RN4220 expressing mCherry fluorescent protein (S. aureus-mCherry) was used for in vitro studies. Bacterial inoculums were prepared by culturing S. aureus-mCherry in tryptic soy broth (TSB; BD Difco, Leeuwarden, the Netherlands) supplemented with 10 μg/mL chloramphenicol (Merck) shaking at 120 rpm and 37° C. to the mid logarithmic growth phase. S. aureus-mCherry bacteria were pelleted by centrifugation (3000 g, 10 min), re-suspended in 1 mL of NaCl and 0.25 mL human serum (H1 serum, Bio Whittaker, MD, USA) and incubated for 20 min. The inoculum was adjusted to 10^8 CFU/mL with RPMI based on the optical density value at wavelength 620 (OD620). The human THP-1 macrophages were seeded as described above in 96-well plates at a concentration of 100.000 cells/cm^2. After 48 h, the media was replaced by 1 μL of the bacterial inoculum (bacteria to cell ratio of 1:1) and incubated for 45 min at 37° C. and 5% CO2. Afterwards, the human THP-1 macrophages were washed three times with 50 μL PBS and one time with 200 μL PBS to prevent carry-over of planktonic S. aureus-mCherry. RPMI media supplemented with 5 μg/mL gentamycin (Sigma-Aldrich) was added to control the extracellular growth of S. aureus-mCherry.
The human THP-1 macrophages were allowed to phagocytose S. aureus-mCherry as described above. To investigate the intracellular killing efficiency of the synthesized NPs, RPMI media with 5 μg/ml gentamycin was enriched with 50 μg/ml of synthesized NPs for 24 h. Moreover, to assess the synergistic effect of zinc and vancomycin, a combination of 20 mol % ZnHA and VGelA NPs was added to the co-culture in different concentrations. After 24 h, the human THP-1 macrophages were lysed with 100 μl of 0.025% TritonX-100 to determine the amount of intracellular S. aureus-mCherry number. After lysis, the solution was serial diluted in PBS and spot-plated on agar plates. […] Additionally, the viability of the THP-1 macrophages is assessed using a LIVE/DEAD cell viability assay (Invitrogen, Waltham, MA, USA) as mentioned above. […]
Series [2] deals with human THP-1 macrophages. Description: LIVE/DEAD cell viability assay of THP-1 macrophages with phagocytosed S. aureus. The following applies: systemic zinc 75 μM, 24 h. The series is classed as cell-based. The procedure:
Additionally, a LIVE/DEAD cell viability assay (Invitrogen, Waltham, MA, USA) was used according to the manufacturer's instructions to visualize the cells after 24 h of phagocytosis. In brief, 100 μL of 4 μM Ethidium homodimer 1 and 2 μM calcein AM solution in PBS was added to the human THP-1 macrophages and incubated for 30 min before visualization using a Leica SP8-X DLS Lightsheet microscope (Leica Microsystems, Wetzlar, Germany). Human THP-1 macrophages without phagocytosed S. aureus-mCherry served as negative control. The amount of living cells were quantified by counting using three LIVE/DEAD images and compared between macrophages with and without phagocytosed S. aureus.
The human THP-1 macrophages were allowed to phagocytose S. aureus-mCherry as described above. To investigate the intracellular killing efficiency of the synthesized NPs, RPMI media with 5 μg/ml gentamycin was enriched with 50 μg/ml of synthesized NPs for 24 h. Moreover, to assess the synergistic effect of zinc and vancomycin, a combination of 20 mol % ZnHA and VGelA NPs was added to the co-culture in different concentrations. […] Additionally, the viability of the THP-1 macrophages is assessed using a LIVE/DEAD cell viability assay (Invitrogen, Waltham, MA, USA) as mentioned above. […]

For series [3], the system named is human THP-1 macrophages. Put plainly: Internalization of labelled nanoparticles in human THP-1 macrophages (confocal overlay). It counts as cell-based.
Experimental: For cell culture experiments, human THP-1 macrophages (American Type Culture Collection, Manassas, USA) were maintained in Roswell Park Memorial Institute (RPMI) 1640 media supplemented with 2 mM Glutamine (GIBCO, New York, NY, USA) and 100/fetal bovine serum (FBS, Sigma-Aldrich). The human THP-1 macrophages were sub-cultured once a week and incubated at 37° C. in a humidified atmosphere containing 5% CO2. The human THP-1 macrophages were passaged by centrifugation when reaching a confluency of 10^6 cells/mL. In the following experiments, cell seeding is performed with media enriched with 50 ng/ml phorbol 12-myristate 13-acetate (PMA; Sigma-Aldrich) to allow for adherence of cells over 48 h.
Human THP-1 macrophages were cultured as described above and seeded with a density of 200.000 cells/cm^2 in an 8-well μ-slide (ibidi, Gräfelfing, Germany) for 48 h. Labeled NPs were diluted in RPMI cell culture medium to reach a final concentration of 50 μg/mL. Afterwards 200 μL particle suspension was added to the human THP-1 macrophages. […] The image analysis software Fiji was used for the reconstruction of images, and the plugin “co-localization finder” was used to visualize the overlaying signal in white and quantify the fluorescence overlay of different channels.

On to `[Zn]` [zinc], for which the “survival of intracellular S. aureus” value in series [1] is “did not cause a significant reduction”. Besides, in series [1] (systemic zinc 75 μM), the “effect on intracellular S. aureus survival” value is given as “reduction of intracellular S. aureus survival”. Further, the “amount of alive cells (LIVE/DEAD images)” value in series [2] is “visually decreased the amount of alive cells”.
For the compound FITC-vancomycin, the “internalization by human THP-1 macrophages” value in series [3] (dissolved, no NPs) is on record as “inability”. In addition, the “Overlay (%)” value in series [3] (fluorescently labelled NPs 50 μg/mL in THP-1 macrophages, confocal co-localization) was 0%.
Regarding `CN[C@H](CC(C)C)C(=O)N[C@H]1C(=O)N[C@@H](CC(N)=O)C(=O)N[C@H]2C(=O)N[C@H]3C(=O)N[C@H](C(=O)N[C@H](C(=O)O)c4cc(O)cc(O)c4-c4cc3ccc4O)[C@H](O)c3ccc(c(Cl)c3)Oc3cc2cc(c3O[C@@H]2O[C@H](CO)[C@@H](O)[C@H](O)[C@H]2O[C@H]2C[C@](C)(N)[C@H](O)[C@H](C)O2)Oc2ccc(cc2Cl)[C@H]1O` [vancomycin], in series [1], the “survival of intracellular S. aureus” value was “did not cause a significant reduction”.
